Test results taken from patent US20260166039A1 (SCHRÖDINGER, INC., priority 2022, published 2026).
Where two headings read alike, the source gives them in different places.

Columns and labels:
[1] = system: phosphorylation of Cdc2 Y15 (Wee1 substrate) in A427 cells; test: Phosphorylated Cdc2 MSD Electrochemiluminescence Assay; type: cell-based; settings: Homo sapiens
How it was run: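 A427 cells (RPMI 1640, 10% FBS) treated 20 h after plating with 3-fold serial compound dilutions, in duplicate, 37 °C, 5% CO2; total incubation 6 h. Lysate Cdc2 pY15 read by MSD electrochemiluminescence sandwich immunoassay; % remaining signal normalised to DMSO (high) and reference Wee1 inhibitor (low) controls.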

[2] = target: T1, Wee1 kinase domain (Homo sapiens, UniProt P30291); test: Wee1 Kinase Biochemical Assay (ADP-Glo); settings: 15 uM ATP
T1 construct: Wee1 kinase domain was purchased from Carna (catalog #05-177); purchased Carna 05-177
How it was run: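 Kinase domain (1 nM) incubated 4 h at 25 °C with 15 uM ATP and 2 ng/mL Poly(Lys,Tyr 4:1) in 40 mM Tris-HCl, 20 mM MgCl2, 0.1 mg/mL BSA, 2 mM DTT. ADP formation read by ADP-Glo luminescence; percent inhibition normalized to DMSO and saturating reference-inhibitor controls.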

[3] = A-427, class symbols, read-out: A427 pCDC2 MSD IC50
[4] = class symbols, 1 nM Wee1 enzyme, 4 hours at 25° C.

T1 sequence (P30291 299-569 limits assumed): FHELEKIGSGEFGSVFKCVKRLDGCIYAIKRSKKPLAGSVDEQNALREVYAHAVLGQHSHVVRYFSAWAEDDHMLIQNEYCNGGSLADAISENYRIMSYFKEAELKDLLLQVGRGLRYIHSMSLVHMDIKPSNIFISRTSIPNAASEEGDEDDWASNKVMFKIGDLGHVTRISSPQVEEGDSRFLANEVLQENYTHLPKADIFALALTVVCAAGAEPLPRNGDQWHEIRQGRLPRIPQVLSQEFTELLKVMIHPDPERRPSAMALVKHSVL

IC50 ([1]; A-427, pCDC2 MSD) [µM] | IC50 ([2]; Wee1 kinase domain, ADP-Glo) [µM] | IC50 [1, 3] [µM] | IC50 [2, 4] [µM] | Compound
0.1 to 1 | < 0.01 |  |  | CNCc1cccc(N2c3nc(Nc4ccc(N5CCC(F)(F)C5)cc4)ncc3[C@@]3(C)COC(C)(C)C[C@@H]23)n1 (single isomer, unassigned) [Example 22]
 |  | 0.1 to 1 | < 0.01 | CN1C[C@H]2C[C@@H]1CN2c1ccc(Nc2ncc3c(n2)N(c2cccc(P(C)(C)=O)n2)[C@@H]2CC(C)(C)OC[C@]32C)cc1 [Example 778, dimethyl(6-((4bR,8aR)-4b,7,7-trimethyl-2-((4-((1R,4R)-5-methyl-2,5-diazabicyclo[2.2.1]heptan-2-yl)phenyl)amino)-4b,7,8,8a-tetrahydropyrano[3′,4′:4,5]pyrrolo[2,3-d]pyrimidin-9(5H)-yl)pyridin-2-yl)phosphine oxide]
0.1 to 1 | < 0.01 |  |  | CC1(C)C[C@H]2N(c3cccc(N=S(C)(C)=O)n3)c3nc(Nc4ccn([C@@H]5CCOC5)c(=O)c4)ncc3[C@@]2(C)CO1 (single isomer, unassigned) [Example 375]
 |  | 0.1 to 1 | < 0.01 | CN1C[C@H]2C[C@@H]1CN2c1ccc(Nc2ncc3c(n2)N(c2cccc(N=S(C)(C)=O)c2)[C@@H]2CC(C)(C)OC[C@]32C)cc1 [Example 713, dimethyl((3-((4bR,8aR)-4b,7,7-trimethyl-2-((4-((1R,4R)-5-methyl-2,5-diazabicyclo[2.2.1]heptan-2-yl)phenyl)amino)-4b,7,8,8a-tetrahydropyrano[3′,4′:4,5]pyrrolo[2,3-d]pyrimidin-9(5H)-yl)phenyl)imino)-16-sulfanone]
0.1 to 1 | < 0.01 |  |  | CN1CC(c2ccc(Nc3ncc4c(n3)N(c3cccc(N=S(C)(C)=O)n3)[C@@H]3CC(C)(C)OC[C@]43C)cn2)C1 (single isomer, unassigned) [Example 192]
0.1 to 1 | < 0.01 |  |  | CC1(C)C[C@H]2N(c3cccc(N=S(C)(C)=O)n3)c3nc(Nc4cnn(C5COC5)c4)ncc3[C@@]2(C)CO1 (single isomer, unassigned) [Example 223]
 |  | 0.1 to 1 | < 0.01 | CN1CC(c2ccc(Nc3ncc4c(n3)N(c3cccc(N5CCCC5=O)n3)[C@@H]3CC(C)(C)OC[C@]43C)cc2)C1 [Example 696, 1-(6-((4bR,8aR)-4b,7,7-trimethyl-2-((4-(1-methylazetidin-3-yl)phenyl)amino)-4b,7,8,8a-tetrahydropyrano[3′,4′:4,5]pyrrolo[2,3-d]pyrimidin-9(5H)-yl)pyridin-2-yl)pyrrolidin-2-one]
0.1 to 1 | < 0.01 |  |  | Cc1cc(Nc2ncc3c(n2)N(c2cccc(N4C(=O)OC[C@@H]4C)n2)[C@@H]2CC(C)(C)OC[C@]32C)ccc1O[C@H]1CCNC1 (single isomer, unassigned) [Example 339]
 |  | 1 to 10 | < 0.01 | CNCc1cccc(N2c3nc(Nc4ccc(-n5ccnc5)nc4)ncc3[C@@]3(C)COC(C)(C)C[C@@H]23)n1 (single isomer, unassigned) [Example 468]
 |  | 0.1 to 1 | < 0.01 | Cc1cc(Nc2ncc3c(n2)N(c2cccc(C(C)(C)O)n2)[C@@H]2CC(C)(C)OC[C@]32C)ccc1N1C[C@@H]2C[C@H]1CN2C (single isomer, unassigned) [Example 429]
 |  | 1 to 10 | < 0.01 | CN1CCN(c2ccc(Nc3ncc4c(n3)N(c3ccn(C(F)(F)F)n3)[C@@H]3CC(C)(C)OC[C@]43C)cc2)CC1 (single isomer, unassigned) [Example 719]
0.1 to 1 | < 0.01 |  |  | C[C@H]1COC(=O)N1c1cccc(N2c3nc(Nc4ccc(N5CCNCC5)cc4)ncc3[C@@]3(C)COC(C)(C)C[C@@H]23)n1 (single isomer, unassigned) [Example 260]
 |  | 0.1 to 1 | < 0.01 | CN1CC2(C1)CN(c1ccc(Nc3ncc4c(n3)N(c3cccc(N5CCOC5=O)n3)[C@@H]3CC(C)(C)OC[C@]43C)cc1)C2 [Example 707, 3-(6-((4bR,8aR)-4b,7,7-trimethyl-2-((4-(6-methyl-2,6-diazaspiro[3.3]heptan-2-yl)phenyl)amino)-4b,7,8,8a-tetrahydropyrano[3′,4′:4,5]pyrrolo[2,3-d]pyrimidin-9(5H)-yl)pyridin-2-yl)oxazolidin-2-one]
 |  | 0.1 to 1 | < 0.01 | CN1CCC(c2cccc(N3c4nc(Nc5ccc(N6CCOCC6)cc5)ncc4[C@@]4(C)COC(C)(C)C[C@@H]34)n2)CC1 (single isomer, unassigned) [Example 533]
0.1 to 1 | < 0.01 |  |  | CC1(C)C[C@H]2N(c3cccc(N=S(C)(C)=O)n3)c3nc(Nc4ccc(O[C@@H]5CCNC5)cc4)ncc3[C@@]2(C)CO1 (single isomer, unassigned) [Example 155]
 |  | 1 to 10 | < 0.01 | CNCc1cccc(N2c3nc(Nc4ccc(-n5ccnc5)c(F)c4)ncc3[C@@]3(C)COC(C)(C)C[C@@H]23)n1 (single isomer, unassigned) [Example 466]

IC50 ([1]; A-427, pCDC2 MSD) [µM] | IC50 ([2]; Wee1 kinase domain, ADP-Glo) [µM] | IC50 [1, 3] [µM] | IC50 [2, 4] [µM] | Compound
1 to 10 | 0.1 to 1 |  |  | CN1CCC(n2cc(Nc3ncc4c(n3)N(c3cccc(N=S(C)(C)=O)n3)[C@H]3CC(C)(C)OC[C@@]43C)cn2)CC1 (single isomer, unassigned) [Example 101]
0.1 to 1 | < 0.01 |  |  | C[C@H]1COC(=O)N1c1cccc(N2c3nc(Nc4ccc(O[C@@H]5CCNC5)cc4)ncc3[C@@]3(C)COC(C)(C)C[C@@H]23)n1 (single isomer, unassigned) [Example 327]
0.1 to 1 | < 0.01 |  |  | CNCc1cccc(N2c3nc(Nc4ccc(N5CCOCC5)c(Cl)c4)ncc3[C@@]3(C)COC(C)(C)C[C@@H]23)n1 (single isomer, unassigned) [Example 14]
0.1 to 1 | < 0.01 |  |  | C[C@H]1COC(=O)N1c1cccc(N2c3nc(Nc4ccc(N5C[C@H]6C[C@@H]5CN6)cc4)ncc3[C@@]3(C)COC(C)(C)C[C@@H]23)n1 (single isomer, unassigned) [Example 277]
 |  | 0.1 to 1 | < 0.01 | CC1(C)C[C@H]2N(c3cccc(N=S(C)(C)=O)n3)c3nc(NC(=O)[C@@H]4C[C@H]4c4cccnc4)ncc3[C@@]2(C)CO1 (single isomer, unassigned) [Example 401]
 |  | 0.1 to 1 | < 0.01 | Cc1cc(Nc2ncc3c(n2)N(c2cccc(N4CCOC4=O)n2)[C@@H]2CC(C)(C)OC[C@]32C)ccc1N1C[C@H]2C[C@@H]1CN2C [Example 660, 3-(6-((4bR,8aR)-4b,7,7-trimethyl-2-((3-methyl-4-((1R,4R)-5-methyl-2,5-diazabicyclo[2.2.1]heptan-2-yl)phenyl)amino)-4b,7,8,8a-tetrahydropyrano[3′,4′:4,5]pyrrolo[2,3-d]pyrimidin-9(5H)-yl)pyridin-2-yl)oxazolidin-2-one]
 |  | < 0.1 | < 0.01 | CN1CCCN(c2ccc(Nc3ncc4c(n3)N(c3cccc(N=S(C)(C)=O)n3)[C@@H]3CC(C)(C)OC[C@]43C)cc2)CC1 (single isomer, unassigned) [Example 501]
0.1 to 1 | < 0.01 |  |  | CN1CC[C@H](n2cc(Nc3ncc4c(n3)N(c3cccc(N=S(C)(C)=O)n3)[C@@H]3CC(C)(C)OC[C@]43C)cn2)C1 (single isomer, unassigned) [Example 198]
0.1 to 1 | < 0.01 |  |  | C[C@@H]1CN(c2ccc(Nc3ncc4c(n3)N(c3cccc(N5C(=O)OC[C@@H]5C)n3)[C@@H]3CC(C)(C)OC[C@]43C)cc2)CCN1C (single isomer, unassigned) [Example 313]
 |  | 0.1 to 1 | < 0.01 | CN1CCN(c2ccc(Nc3ncc4c(n3)N(c3nccs3)[C@@H]3CC(C)(C)OC[C@]43C)cc2)CC1 (single isomer, unassigned) [Example 726]
 |  | 0.1 to 1 | < 0.01 | CNCc1cccc(N2c3nc(Nc4ccc(N5CCN(C)C(=O)C5)cc4)ncc3[C@@]3(C)COC(C)(C)C[C@@H]23)n1 (single isomer, unassigned) [Example 450]
0.1 to 1 | < 0.01 |  |  | Cc1cc(Nc2ncc3c(n2)N(c2cccc(N4C(=O)OC[C@@H]4C)n2)[C@@H]2CC(C)(C)OC[C@]32C)ccc1O[C@H]1CCN(C)C1 (single isomer, unassigned) [Example 345]
 |  | 0.1 to 1 | < 0.01 | CN1C[C@@H]2C[C@H]1CN2c1ccc(Nc2ncc3c(n2)N(c2cccc(C(C)(C)O)n2)[C@@H]2CC(C)(C)OC[C@]32C)cc1 (single isomer, unassigned) [Example 416]
< 0.1 | < 0.01 |  |  | Cc1cc(Nc2ncc3c(n2)N(c2cccc(N=S(C)(C)=O)n2)[C@@H]2CC(C)(C)OC[C@]32C)ccc1[C@H]1CCN(C)C1 (single isomer, unassigned) [Example 147]
1 to 10 | < 0.01 |  |  | CC1(C)C[C@H]2N(c3cccc(N=S(C)(C)=O)n3)c3nc(Nc4cn(C5COC5)cn4)ncc3[C@@]2(C)CO1 (single isomer, unassigned) [Example 232]

Compound | IC50 ([1]; A-427, pCDC2 MSD) [µM] | IC50 ([2]; Wee1 kinase domain, ADP-Glo) [µM] | IC50 [1, 3] [µM] | IC50 [2, 4] [µM]
C[C@H]1CCC(=O)N1c1cccc(N2c3nc(Nc4ccc(N5C[C@H]6C[C@@H](C5)N6C)cc4)ncc3[C@@]3(C)COC(C)(C)C[C@@H]23)n1 (single isomer, unassigned) [Example 748] |  |  | 0.1 to 1 | < 0.01
C[C@H]1COC(=O)N1c1cccc(N2c3nc(Nc4ccc(N5C[C@H]6C[C@@H](C5)N6C)cc4)ncc3[C@@]3(C)COC(C)(C)C[C@@H]23)n1 (single isomer, unassigned) [Example 352] | 0.1 to 1 | < 0.01 |  | 
C[C@H]1COC(=O)N1c1cccc(N2c3nc(Nc4ccc(N5CCN(C)CC5)cc4)ncc3[C@@]3(C)COCC[C@@H]23)n1 (single isomer, unassigned) [Example 702] |  |  | 0.1 to 1 | < 0.01
